Values joined by “and” are separate entries in the source; they are usually repeats but may differ in a detail not shown here. Equal values may be shown once. Read-outs that look alike come from different tables or passages of the source.
Tests used:
[1] = test system: EpiAirway™ (AIR-100) tissues; conditions: H&E staining after 24-hour recovery
[2] = test system: EpiAirway™ (AIR-100) tissues; conditions: for TEER Significant?: alpha 0.05
[3] = test system: EpiAirway™ (AIR-100) tissues
[4] = post 24 hr recovery: Untreated Control vs treatment
[5] = pre exposure vs post 24 hr recovery, same treatment

Question: With Triton X-100 [0.5% Triton] as the substance, how does the “Tissue morphology” value [1] read?
Answer: significant tissue disruption

Question: What about the “Effect on barrier function / TEER” value ([2]; 24-hour recovery) of the same substance?
Answer: dropped completely

Question: What about the “24 hr TEER Mean” value ([2]; group mean n=3 tissues, after 24-hour recovery) of the same substance?
Answer: 8.6 Ohms*cm2

Question: And the “Pre-Exposure TEER Mean” value ([2]; group mean n=3 tissues, before exposure)?
Answer: 749.8 Ohms*cm2

Question: What about the “24 hr TEER Ohms*cm2” value ([2]; per tissue, after 24-hour recovery) of the same substance?
Answer: 9.0 Ohms*cm2 and 8.4 Ohms*cm2

Question: And the “Pre-Exposure TEER Ohms*cm2” value ([2]; per tissue, before exposure)?
Answer: 672.0 Ohms*cm2 and 832.8 Ohms*cm2 and 744.6 Ohms*cm2

Question: And the “TEER Mean Diff., Tukey's multiple comparisons test” value [2, 4]?
Answer: 628.6

Question: What about the “TEER Significant?” value [2, 4] of the same substance?
Answer: Yes

Question: And the “TEER Mean Diff., Tukey's multiple comparisons test” value [2, 5]?
Answer: 741.2

Question: And the “TEER Significant?” value [2, 5]?
Answer: Yes

Question: What about the “TEER statistics test details: group mean, pre exposure” value ([2]; pre exposure, N=3) of the same substance?
Answer: 749.8

Question: What about the “24 hr TEER” value ([2]; raw reading per tissue after 24-hour recovery, background 5 not subtracted) of the same substance?
Answer: 20 and 19

Question: What about the “Pre-Exposure TEER” value ([2]; raw reading per tissue before exposure, background 5 not subtracted) of the same substance?
Answer: 1125 and 1393 and 1246

Question: What about the “Effect on tissue viability” value ([3]; LDH assay, 24-hour time point) of the same substance?
Answer: complete loss of viability

Question: What about the “LDH viability Mean Diff., Tukey's multiple comparisons test” value ([3]; Untreated Control vs treatment) of the same substance?
Answer: 100

Question: What about the “LDH viability Significant?” value ([3]; Untreated Control vs treatment, alpha 0.05) of the same substance?
Answer: Yes

Question: And the “LDH Group Mean OD” value ([3]; group mean n=3 tissues, 24-hour time point)?
Answer: 1.125

Question: What about the “% Viability Mean” value ([3]; group mean n=3 tissues, LDH assay, 24-hour time point) of the same substance?
Answer: 0.0%

Question: And the “LDH Mean OD” value ([3]; mean of duplicates per tissue, 24-hour time point)?
Answer: 1.181 and 1.062 and 1.132

Question: What about the “LDH statistics test details: group mean” value ([3]; percent viability, 24-hour time point) of the same substance?
Answer: −0.01667

Reference: US12648926B2, “Dietary supplement comprising aldehyde functional monoterpenoids” (priority 2020, dated 2026)
